Key:
Details in all cases: 48 h
CU-ACC1 [1] = experiment: AC50 viability; higher = less potent
Method in brief: (§1)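 After 48 h of treatment with 23 nL of each library compound at 11 concentrations, three adrenocortical carcinoma cell lines in 1,536-well plates (500–1,000 cells/well, 5 µL medium) were given CellTiter-Glo for 15 minutes at room temperature. Luminescence was then read and normalised per plate to vehicle and empty-well controls. AC50 and area under the curve were drawn from fitted concentration-response curves of inhibitory or non-responding classes only.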

CU-ACC1 [2] = experiment: area under concentration-response curve (viability) (AUC (a.u.)); higher = less active
Method in brief: as §1

CU-ACC2 = experiment: as above
Method in brief: as §1

NCI-H295R = experiment: as above
Method in brief: as §1

| Structure (SMILES) | AC50 viability (CU-ACC1 [1]) [µM] | area under concentration-response curve (CU-ACC1 [2]) | area under concentration-response curve (CU-ACC2) | area under concentration-response curve (NCI-H295R) |
| --- | --- | --- | --- | --- |
| CC(C)CC(=O)Nc1n[nH]c2c1CN(C(=O)C1CCN(C)CC1)C2(C)C | 16.6 | 514 | 574 | 562 |
| Cc1ccc(N[S+](=O)([O-])c2cccc(C#N)c2)c2[nH]cc(C#N)c12 | 0.833 | 451 | 576 | 489 |
| CN(CC#C)C/C1=C/C2=CC=CC=C2OC3=CC=CC=C13 | 33.2 | 419 | 524 | 546 |
| CCc1c(C(=O)NNC(=O)[C@@H](O)c2cc(F)cc(F)c2)ccc(O)c1C | 26.3 | 387 | 492 | 441 |
| N=C(N)Nc1ccc(C(=O)Oc2ccc3cc(C(=N)N)ccc3c2)cc1 | 33.2 | 460 | 585 | 532 |
| c1ccc2c(-c3cnn4cc(-c5ccc(OCCN6CCOCC6)cc5)cnc34)ccnc2c1 | 4.56 | 395 | 637 | 568 |
| CC(=O)[C@]1(N)Cc2c(O)c3c(c(O)c2[C@@H](O[C@H]2C[C@H](O)[C@H](O)CO2)C1)C(=O)c1ccccc1C3=O | 16.6 | 474 | 487 | 534 |
| CNC(=O)c1c(F)cccc1Nc1nc(Nc2cc3c(cc2OC)CCN3C(=O)CN(C)C)nc2[nH]ccc12 | 20.9 | 524 | 526 | 458 |
| Cn1cnc2c(F)c(Nc3ccc(Br)cc3F)c(C(=O)NOCCO)cc21 | 0.0332 | 242 | 145 | 159 |
| COC(=O)N1CCN(Cc2cccc(NC(=O)Nc3ccc(C)nc3)c2F)CC1 | 74.2 | 486 | 601 | 573 |
| CC(C)(C)NC(=O)Nc1cccc(Nc2ncc(F)c(NC(C)(C)CO)n2)c1 | 23.5 | 525 | 652 | 571 |
| CC(C)(C)OC(=O)Nc1ccc(-c2cc(C(=O)NCCCCCCC(=O)NO)no2)cc1 | 14.8 | 479 | 598 | 564 |
| CN(NC(=O)CC(=O)NN(C)C(=S)c1ccccc1)C(=S)c1ccccc1 | 3.72 | 402 | 567 | 521 |
| Cc1c[nH]c(/C=C2\C(=O)Nc3ccccc32)c1CCC(=O)O | 0.0105 | 428 | 353 | 381 |
| O=C1CCc2cc(OCCCCc3nnnn3C3CCCCC3)ccc2N1 | 18.6 | 468 | 579 | 531 |
| FC1=C(C=C(C/C2=N/NC(=O)C3=C2C=CC=C3)C=C1)C(=O)N4CCN(CC4)C(=O)C5CC5 | 10.5 | 456 | 464 | 434 |
| CC(C)n1c(/C=C/[C@H](O)C[C@H](O)CC(=O)O)c(-c2ccc(F)cc2)c2ccccc21 | 10.5 | 506 | 617 | 567 |
| COc1ccc(Cn2ccc3ccc(C(=O)NO)cc32)cc1 | 23.5 | 524 | 625 | 582 |
| CN(C)C(=O)[C@H](O)[C@H](Cc1ccccc1)NC(=O)c1cc2cc(Cl)ccc2[nH]1 | 0.0118 | 364 | 420 | 444 |
| S=C(NCc1ccc2c(c1)OCO2)N1CCN(c2ncnc3c2oc2ccccc23)CC1 | 2.95 | 383 | 567 | 483 |
| CC(C)c1noc(N2CCC(COc3ccc(-c4ccc([S+](C)(=O)[O-])cc4)nc3)CC2)n1 | 8.33 | 419 | 583 | 496 |

| Structure (SMILES) | AC50 viability (CU-ACC1 [1]) [µM] | area under concentration-response curve (CU-ACC1 [2]) | area under concentration-response curve (CU-ACC2) | area under concentration-response curve (NCI-H295R) |
| --- | --- | --- | --- | --- |
| O=C(O)c1nn(Cc2ccc(Cl)cc2Cl)c2ccccc12 | 1.66 | 442 | 464 | 440 |
| C[C@@H]1CC[C@@]2(CC[C@]3(C)\C(=C/C[C@@H]4[C@@]5(C)CC[C@H](O)C(C)(C)[C@@H]5CC[C@@]34C)[C@@H]2[C@H]1C)C(O)=O | 9.34 | 402 | 441 | 419 |
| COc1nnc2ccc(N3CCC(c4ccc(OCCN5CCN(C)C(=O)[C@H]5C)cc4)CC3)nn12 | 0.263 | 468 | 449 | 474 |
| CC1=C(C)C\2=C(S1)[N]3C(=NN=C3C(CC(=O)NC4=CC=C(O)C=C4)\N=C2C5=CC=C(Cl)C=C5)C (stereo not drawn) | 2.63 | 458 | 549 | 527 |
| CCOC(=O)[C@@]1(CCCCCCOc2ccc(Cl)cc2)CO1 | 23.5 | 382 | 624 |  |
| CNC(=O)c1cc(Oc2ccc3nc(N[C@@H]4CCCC[C@H]4O)sc3c2)ccn1 | 20.9 | 481 | 583 | 548 |
| C=CC(=O)N1CCC(C2CCNc3c(C(N)=O)c(-c4ccc(Oc5ccccc5)cc4)nn32)CC1 (stereo not drawn) | 16.6 | 492 | 614 | 553 |
| COc1ccc([S+](=O)([O-])Nc2cccnc2Nc2ccc(O)cc2)cc1 | 4.68 | 479 | 569 | 498 |
| Cc1[nH]c2ccc(F)cc2c1-c1nc2c3cccnc3c3ncccc3c2[nH]1 | 1.52 | 326 | 498 | 424 |
| CCC(=O)N[C@H]1CC[C@H](C(=O)N(C)c2ccc(-c3nc4ccccc4o3)cc2)C1 | 23.5 | 548 | 661 | 555 |
| O=C(NOCCO)c1ccc2cncn2c1Nc1ccc(I)cc1F | 14.8 | 461 | 598 | 549 |
| N[S+](=O)([O-])c1ccc(NC(=S)N2CCN(C/C=C/c3ccccc3)CC2)cc1 | 20.9 | 494 | 583 | 523 |
| Clc1ccc(C(Cn2ccnc2)OCc2ccsc2Cl)c(Cl)c1 (stereo not drawn) | 16.6 | 476 | 584 |  |
| FC1=CC=C(SC/2=N/N3\C=N/C(=O)/C(=C3/C=C2)C4=C(Cl)C=CC=C4Cl)C(=C1)F | 0.0372 | 453 | 562 | 541 |
| COCCOC1=CN=C2\C=C/N([C@H](C)C3=NN=C4[N]3C=C(C=C4F)C5=C[N](C)N=C5)C(=O)C2=C1 | 0.0118 | 394 | 338 | 322 |
| [O-]C(=O)C1=C(C(=C(Cl)C(=C1Cl)Cl)Cl)C/2=C/3\C=C(I)/C(=O)/C(=C3OC4=C2C=C(I)C(=C4I)[O-])I | 13.2 | 421 | 434 | 417 |
| CN[C@@H]1C[C@H]2O[C@@](C)([C@@H]1OC)n1c3ccccc3c3c4c(c5c6ccccc6n2c5c31)C(=O)NC4 | 0.833 | 385 | 359 | 346 |
| O=C(Nc1ccccc1Br)N[C@@H]1CCN(c2ccc(C(F)(F)F)cn2)C1 | 20.9 | 477 | 575 | 539 |
| Cc1c(CN2CCC(Nc3ncnc4sc(CC(F)(F)F)cc34)CC2)ccc2c1cc(C#N)n2Cc1cn[nH]c1 | 3.32 | 411 | 540 | 453 |
| CC#C[C@@H](CC(=O)O)c1ccc(OCc2cccc(-c3ccc(C(F)(F)F)cc3)c2)cc1 | 1.48 | 406 | 506 | 411 |
| Cc1cc(-c2ncc(CC(=O)Nc3ccc(-c4cnccn4)cn3)cc2C)ccn1 | 7.42 | 429 | 597 | 500 |

| Structure (SMILES) | AC50 viability (CU-ACC1 [1]) [µM] | area under concentration-response curve (CU-ACC1 [2]) | area under concentration-response curve (CU-ACC2) | area under concentration-response curve (NCI-H295R) |
| --- | --- | --- | --- | --- |
| O=C(Nc1cccc(Br)c1)c1cccc([S+](=O)([O-])N2CCCCCC2)c1 | 29.5 | 486 | 608 |  |
| O=C(O)c1ccc(O)c2ncc(N3CCOCC3)cc12 | 23.5 | 442 | 525 |  |
| CCCn1c(=O)c2[nH]c(C34CC5CC3C[C@@H](C5)C4)nc2n(CCC)c1=O | 26.3 | 435 | 524 | 489 |
| Cc1cc(OCCC[S+](C)(=O)[O-])cc(C)c1-c1cccc(COc2ccc3c(c2)OC[C@H]3CC(=O)O)c1 | 20.9 | 425 | 528 | 491 |
| COc1ccc(Cc2nccc3cc(OC)c(OC)cc23)cc1OC | 6.61 | 384 | 583 | 533 |
| Clc1ccc(Cn2c(CN3CCCC3)nc3ccccc32)cc1 | 29.5 | 447 | 576 |  |
| CN1CCc2c(n(Cc3ccc(C(=O)NO)cc3)c3ccccc23)C1 | 29.5 | 426 | 482 |  |
| COC1=CC=CC2=C1C(=C(/C(=O)N(C)C3=CC=C(C=C3)C(F)(F)F)C(=O)N2C)/O | 0.0525 | 279 | 187 |  |
| COc1ccc2cc3[n+](cc2c1OC)CCc1cc2c(cc1-3)OCO2 | 4.68 | 444 | 573 | 557 |
| Cc1c(C(=O)N2CCOc3ccc(-c4ccc(N)nc4)cc3C2)ccc([S+](C)(=O)[O-])c1F | 8.33 | 428 | 516 | 473 |
| CN(C)C(=O)c1ccc([S+](=O)([O-])c2ccc(NC(=O)[C@@](C)(O)C(F)(F)F)c(Cl)c2)cc1 | 5.25 | 346 | 640 |  |
| CCOCOC[C@H](C[C@H](C)C(=O)NO)NC(=O)c1ccc(Oc2ccccc2)cc1 | 23.5 | 512 | 636 | 595 |
| Cn1c(=O)c2c(ncn2CC2OCCO2)n(C)c1=O | 0.00235 | 294 | 375 | 452 |
| O=C(CCN1CCN(C(=O)OCc2cc(Cl)cc(Cl)c2)CC1)c1ccc2[nH]c(=O)oc2c1 | 23.5 | 468 | 495 |  |
| N[S+](=O)([O-])c1ccc([S+](=O)([O-])Nc2cccc3c(Cl)c[nH]c23)cc1 | 8.33 | 404 | 527 |  |
| O=C(NOCC(O)CO)c1cc(Br)c(F)c(F)c1Nc1ccc(I)cc1F (stereo not drawn) | 1.18 | 416 | 407 |  |
| OC1=CC2=C(C=C1)C(=O)\C(=C(O2)\C3=CC(=C(O)C=C3)O)O | 14.8 | 451 | 548 |  |
| Clc1ccccc1C(c1ccccc1)(c1ccccc1)n1ccnc1 | 18.6 | 509 | 518 |  |
| CN1CCC(CC1)=C2C3=C(C=CC=C3)\C=C/C4=C2C=CC=C4 | 8.33 | 373 | 480 |  |
| Cc1ccc(-n2nc(C(C)(C)C)cc2NC(=O)Nc2ccc(OCCN3CCOCC3)c3ccccc23)cc1 | 29.5 | 374 | 499 |  |

— the supplement of paper PMC10949913
